Data reported in paper PMC7026418, “The kinase polypharmacology landscape of clinical PARP inhibitors” (Scientific Reports, 2020).
Read-outs that look alike come from different tables or passages of the source. Values belong to the compound of their own block, whether it stands above or below them.

Tests used:
Assay in all cases: biochemical
Design in all cases: DiscoveRx KINOMEscan active site-directed competition binding; percent of control kinase bound to immobilised ligand
[1] = molecular target: T1, ABL1(F317I)-phosphorylated (Homo sapiens, UniProt P00519, F317I)
T1 construct: phosphorylated

EPHA4 = EPHA4 (Homo sapiens, UniProt P54764)
MEK2 = molecular target: T2, MEK2 (Homo sapiens, UniProt P36507)
T2 construct: gene MAP2K2

LYN = LYN (Homo sapiens, UniProt P07948)
[2] = molecular target: EGFR(L747-E749del, A750P) (Homo sapiens, UniProt P00533, A750P/DEL747-749)
EGFR(G719C) = EGFR(G719C) (Homo sapiens, UniProt P00533, G719C)
PRKCH = PRKCH (Homo sapiens, UniProt P24723)
TSSK3 = molecular target: T3, TSSK3 (Homo sapiens, UniProt Q96PN8)
T3 sequence (Q96PN8 1-268): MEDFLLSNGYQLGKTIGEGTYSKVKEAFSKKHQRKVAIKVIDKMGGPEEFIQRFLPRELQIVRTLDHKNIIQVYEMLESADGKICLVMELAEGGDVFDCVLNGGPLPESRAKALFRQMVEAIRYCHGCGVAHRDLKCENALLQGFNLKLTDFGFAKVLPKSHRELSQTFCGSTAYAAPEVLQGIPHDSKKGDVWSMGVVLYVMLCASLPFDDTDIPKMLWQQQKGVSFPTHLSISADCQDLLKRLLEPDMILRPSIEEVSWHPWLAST

CDKL1 = CDKL1 (Homo sapiens, UniProt Q00532)
EGFR(L747-T751del,Sins) = EGFR(L747-T751del,Sins) (Homo sapiens, UniProt P00533, DEL747-750/T751S)
SYK = SYK (Homo sapiens, UniProt P43405)
AKT3 = AKT3 (Homo sapiens, UniProt Q9Y243)
PIM3 = PIM3 (Homo sapiens, UniProt Q86V86)
DRAK1 = molecular target: T4, DRAK1 (Homo sapiens, UniProt Q9UEE5)
T4 construct: gene STK17A
T4 sequence (Q9UEE5 1-414): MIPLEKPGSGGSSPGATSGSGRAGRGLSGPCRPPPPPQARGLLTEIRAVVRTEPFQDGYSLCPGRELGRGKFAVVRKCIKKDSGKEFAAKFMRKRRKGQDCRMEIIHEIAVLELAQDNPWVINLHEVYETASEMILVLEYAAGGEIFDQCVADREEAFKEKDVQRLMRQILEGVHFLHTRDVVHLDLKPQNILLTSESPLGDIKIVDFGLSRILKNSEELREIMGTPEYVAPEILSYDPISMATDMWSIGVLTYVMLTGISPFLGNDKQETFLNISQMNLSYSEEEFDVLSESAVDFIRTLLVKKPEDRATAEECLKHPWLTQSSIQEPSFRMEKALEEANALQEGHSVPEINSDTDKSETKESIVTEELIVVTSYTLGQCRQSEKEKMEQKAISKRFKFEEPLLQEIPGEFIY

MAST1 = MAST1 (Homo sapiens, UniProt Q9Y2H9)
[3] = read-out: Niraparib (MK-4827) / %Ctrl @ 10000nM
[4] = read-out: Rucaparib / %Ctrl @ 10000nM, binding competition, % of control
[5] = read-out: Olaparib / %Ctrl @ 10000nM
[6] = read-out: Talazoparib (BMN 673) / %Ctrl @ 10000nM

Chain of EGFR(G719C) (P00533 whole entry G719C): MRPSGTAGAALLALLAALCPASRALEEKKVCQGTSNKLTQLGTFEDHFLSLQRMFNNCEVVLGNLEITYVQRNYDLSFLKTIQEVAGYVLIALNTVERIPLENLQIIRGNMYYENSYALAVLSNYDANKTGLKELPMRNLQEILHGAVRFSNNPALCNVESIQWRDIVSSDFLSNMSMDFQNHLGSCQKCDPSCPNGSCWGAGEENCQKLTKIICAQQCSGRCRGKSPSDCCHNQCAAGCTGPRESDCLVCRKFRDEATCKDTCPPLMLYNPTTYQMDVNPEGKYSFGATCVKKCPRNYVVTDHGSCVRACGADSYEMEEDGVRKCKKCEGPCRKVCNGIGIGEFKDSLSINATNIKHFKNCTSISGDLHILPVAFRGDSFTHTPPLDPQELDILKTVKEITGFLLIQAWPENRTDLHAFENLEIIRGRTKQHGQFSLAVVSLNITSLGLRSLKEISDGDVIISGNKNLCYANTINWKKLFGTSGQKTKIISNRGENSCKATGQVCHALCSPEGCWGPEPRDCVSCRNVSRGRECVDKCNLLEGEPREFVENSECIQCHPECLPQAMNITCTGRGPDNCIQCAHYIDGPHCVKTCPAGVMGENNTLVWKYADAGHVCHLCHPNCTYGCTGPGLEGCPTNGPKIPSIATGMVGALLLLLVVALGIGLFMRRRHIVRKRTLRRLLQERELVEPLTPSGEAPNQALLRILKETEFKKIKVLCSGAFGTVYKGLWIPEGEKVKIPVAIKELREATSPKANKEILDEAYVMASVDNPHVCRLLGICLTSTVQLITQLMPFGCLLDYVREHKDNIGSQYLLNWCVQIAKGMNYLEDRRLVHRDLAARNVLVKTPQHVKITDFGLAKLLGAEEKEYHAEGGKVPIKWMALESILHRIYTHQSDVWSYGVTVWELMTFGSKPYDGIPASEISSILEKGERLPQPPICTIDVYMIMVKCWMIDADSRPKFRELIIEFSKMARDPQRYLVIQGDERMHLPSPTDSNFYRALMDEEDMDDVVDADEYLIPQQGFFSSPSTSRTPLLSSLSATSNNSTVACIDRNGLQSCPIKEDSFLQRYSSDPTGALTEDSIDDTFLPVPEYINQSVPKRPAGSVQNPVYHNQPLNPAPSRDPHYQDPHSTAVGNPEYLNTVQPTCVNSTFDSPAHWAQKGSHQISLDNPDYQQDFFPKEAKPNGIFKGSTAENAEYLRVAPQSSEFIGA
Chain of EGFR(L747-E749del, A750P) (P00533 with tags, fused parts or gaps DEL747-749/A750P): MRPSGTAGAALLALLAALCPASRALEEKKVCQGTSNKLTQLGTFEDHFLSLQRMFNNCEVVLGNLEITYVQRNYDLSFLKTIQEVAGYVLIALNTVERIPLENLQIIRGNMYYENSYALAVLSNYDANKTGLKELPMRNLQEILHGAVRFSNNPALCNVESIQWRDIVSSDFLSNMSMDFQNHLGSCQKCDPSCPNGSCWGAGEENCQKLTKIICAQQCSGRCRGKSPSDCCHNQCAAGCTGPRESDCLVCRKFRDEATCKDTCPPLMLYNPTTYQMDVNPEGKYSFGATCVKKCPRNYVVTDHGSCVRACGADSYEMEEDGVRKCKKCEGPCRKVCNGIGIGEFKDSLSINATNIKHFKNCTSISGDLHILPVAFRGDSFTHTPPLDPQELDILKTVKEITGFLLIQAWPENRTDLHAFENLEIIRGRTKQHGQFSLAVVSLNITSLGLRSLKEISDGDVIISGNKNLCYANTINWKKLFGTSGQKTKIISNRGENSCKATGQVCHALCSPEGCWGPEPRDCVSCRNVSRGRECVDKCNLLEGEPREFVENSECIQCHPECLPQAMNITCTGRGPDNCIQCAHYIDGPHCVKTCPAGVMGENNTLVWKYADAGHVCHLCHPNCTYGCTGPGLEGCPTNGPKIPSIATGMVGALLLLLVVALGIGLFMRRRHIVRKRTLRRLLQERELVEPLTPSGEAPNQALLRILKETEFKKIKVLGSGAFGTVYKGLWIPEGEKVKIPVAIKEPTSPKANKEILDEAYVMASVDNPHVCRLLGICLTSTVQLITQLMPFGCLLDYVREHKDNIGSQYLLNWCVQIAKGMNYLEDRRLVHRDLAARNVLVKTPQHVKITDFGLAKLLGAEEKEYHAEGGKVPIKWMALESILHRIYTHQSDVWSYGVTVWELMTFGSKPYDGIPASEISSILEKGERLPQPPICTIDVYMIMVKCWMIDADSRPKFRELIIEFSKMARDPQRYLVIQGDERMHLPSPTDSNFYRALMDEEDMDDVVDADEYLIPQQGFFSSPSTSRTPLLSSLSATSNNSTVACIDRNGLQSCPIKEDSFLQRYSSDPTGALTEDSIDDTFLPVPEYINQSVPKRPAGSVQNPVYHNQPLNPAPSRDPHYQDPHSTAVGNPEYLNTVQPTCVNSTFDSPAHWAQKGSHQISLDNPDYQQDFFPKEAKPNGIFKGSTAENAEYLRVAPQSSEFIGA
Chain of PRKCH (P24723 whole entry): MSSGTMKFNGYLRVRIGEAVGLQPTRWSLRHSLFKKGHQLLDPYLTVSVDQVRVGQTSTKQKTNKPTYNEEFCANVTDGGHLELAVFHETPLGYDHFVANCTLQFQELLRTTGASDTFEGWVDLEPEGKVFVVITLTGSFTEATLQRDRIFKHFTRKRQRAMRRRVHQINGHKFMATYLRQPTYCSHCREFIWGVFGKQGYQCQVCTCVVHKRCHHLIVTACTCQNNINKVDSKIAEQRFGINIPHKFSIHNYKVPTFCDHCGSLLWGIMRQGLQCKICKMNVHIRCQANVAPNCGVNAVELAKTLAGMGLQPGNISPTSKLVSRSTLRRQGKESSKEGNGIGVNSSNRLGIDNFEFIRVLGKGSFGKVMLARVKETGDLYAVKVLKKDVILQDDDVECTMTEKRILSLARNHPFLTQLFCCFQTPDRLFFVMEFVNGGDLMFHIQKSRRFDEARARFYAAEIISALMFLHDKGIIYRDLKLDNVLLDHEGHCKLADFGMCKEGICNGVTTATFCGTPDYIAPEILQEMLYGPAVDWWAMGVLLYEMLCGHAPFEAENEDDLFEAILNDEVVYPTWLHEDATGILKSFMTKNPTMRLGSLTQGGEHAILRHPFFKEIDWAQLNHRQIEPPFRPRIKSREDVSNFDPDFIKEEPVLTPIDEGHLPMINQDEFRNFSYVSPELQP
T2 sequence (P36507 whole entry): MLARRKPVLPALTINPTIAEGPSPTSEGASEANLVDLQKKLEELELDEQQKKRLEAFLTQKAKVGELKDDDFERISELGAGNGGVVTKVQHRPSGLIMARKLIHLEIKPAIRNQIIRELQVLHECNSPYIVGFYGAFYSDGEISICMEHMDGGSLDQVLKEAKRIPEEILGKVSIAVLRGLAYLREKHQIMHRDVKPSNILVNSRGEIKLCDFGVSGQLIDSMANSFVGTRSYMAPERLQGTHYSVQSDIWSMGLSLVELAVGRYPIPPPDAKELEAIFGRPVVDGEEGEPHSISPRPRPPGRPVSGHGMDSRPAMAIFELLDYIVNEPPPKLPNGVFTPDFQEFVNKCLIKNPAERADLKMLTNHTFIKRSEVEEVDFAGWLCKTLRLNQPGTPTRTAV
T1 sequence (P00519 whole entry F317I): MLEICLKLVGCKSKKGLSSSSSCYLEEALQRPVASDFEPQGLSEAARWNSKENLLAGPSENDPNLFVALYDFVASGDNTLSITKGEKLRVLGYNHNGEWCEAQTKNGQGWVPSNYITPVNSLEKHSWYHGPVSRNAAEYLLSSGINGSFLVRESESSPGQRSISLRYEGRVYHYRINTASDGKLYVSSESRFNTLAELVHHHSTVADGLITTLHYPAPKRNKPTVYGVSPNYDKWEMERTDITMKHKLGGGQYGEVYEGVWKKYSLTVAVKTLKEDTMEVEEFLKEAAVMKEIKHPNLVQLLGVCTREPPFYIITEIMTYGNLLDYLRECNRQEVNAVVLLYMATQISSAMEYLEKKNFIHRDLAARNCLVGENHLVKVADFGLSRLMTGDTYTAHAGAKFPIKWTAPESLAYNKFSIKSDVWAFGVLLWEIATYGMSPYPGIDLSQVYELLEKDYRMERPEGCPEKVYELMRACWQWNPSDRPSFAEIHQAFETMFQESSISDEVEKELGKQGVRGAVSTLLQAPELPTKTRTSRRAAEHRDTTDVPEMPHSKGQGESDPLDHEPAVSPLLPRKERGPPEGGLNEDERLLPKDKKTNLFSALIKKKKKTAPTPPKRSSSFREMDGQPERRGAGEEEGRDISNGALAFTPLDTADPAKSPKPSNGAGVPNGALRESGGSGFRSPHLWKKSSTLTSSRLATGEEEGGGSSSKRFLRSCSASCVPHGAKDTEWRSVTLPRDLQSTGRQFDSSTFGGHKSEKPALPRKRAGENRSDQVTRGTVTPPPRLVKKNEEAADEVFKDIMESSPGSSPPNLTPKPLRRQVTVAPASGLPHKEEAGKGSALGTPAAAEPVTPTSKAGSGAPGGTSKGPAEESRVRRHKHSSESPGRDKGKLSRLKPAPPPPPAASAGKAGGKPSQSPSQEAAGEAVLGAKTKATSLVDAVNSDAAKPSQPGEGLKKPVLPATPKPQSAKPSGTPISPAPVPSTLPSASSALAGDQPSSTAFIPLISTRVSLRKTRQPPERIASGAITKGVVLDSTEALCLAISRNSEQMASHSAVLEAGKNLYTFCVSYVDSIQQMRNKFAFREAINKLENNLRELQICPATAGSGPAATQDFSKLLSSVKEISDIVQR

Compound: NC(=O)c1cccc2cn(-c3ccc([C@@H]4CCCNC4)cc3)nc12 [Niraparib]
percent of control binding at 10 µM [1, 3]: 89%
percent of control binding at 10 µM (EPHA4; [3]): 83%
percent of control binding at 10 µM (MEK2; [3]): 74%
percent of control binding at 10 µM (LYN; [3]): 71%
percent of control binding at 10 µM [2, 3]: 65%
percent of control binding at 10 µM (EGFR(G719C); [3]): 86%
percent of control binding at 10 µM (PRKCH; [3]): 85%
percent of control binding at 10 µM (TSSK3; [3]): 91%
percent of control binding at 10 µM (CDKL1; [3]): 94%
percent of control binding at 10 µM (EGFR(L747-T751del,Sins); [3]): 90%
percent of control binding at 10 µM (SYK; [3]): 82%
percent of control binding at 10 µM (AKT3; [3]): 97%
percent of control binding at 10 µM (PIM3; [3]): 17%
percent of control binding at 10 µM (DRAK1; [3]): 26%
percent of control binding at 10 µM (MAST1; [3]): 91%

percent of control binding at 10 µM [1, 4]: 92%
percent of control binding at 10 µM (EPHA4; [4]): 97%
percent of control binding at 10 µM (MEK2; [4]): 79%
percent of control binding at 10 µM (LYN; [4]): 89%
percent of control binding at 10 µM [2, 4]: 98%
percent of control binding at 10 µM (EGFR(G719C); [4]): 82%
percent of control binding at 10 µM (PRKCH; [4]): 94%
percent of control binding at 10 µM (TSSK3; [4]): 0%
percent of control binding at 10 µM (CDKL1; [4]): 84%
percent of control binding at 10 µM (EGFR(L747-T751del,Sins); [4]): 86%
percent of control binding at 10 µM (SYK; [4]): 100%
percent of control binding at 10 µM (AKT3; [4]): 100%
percent of control binding at 10 µM (DRAK1; [4]): 14%
percent of control binding at 10 µM (MAST1; [4]): 79%
Compound: CNCc1ccc(-c2[nH]c3cc(F)cc4c3c2CCNC4=O)cc1 [Rucaparib]

percent of control binding at 10 µM [1, 5]: 86%
percent of control binding at 10 µM (EPHA4; [5]): 92%
percent of control binding at 10 µM (MEK2; [5]): 87%
percent of control binding at 10 µM (LYN; [5]): 93%
percent of control binding at 10 µM [2, 5]: 82%
percent of control binding at 10 µM (EGFR(G719C); [5]): 98%
percent of control binding at 10 µM (PRKCH; [5]): 94%
percent of control binding at 10 µM (TSSK3; [5]): 89%
percent of control binding at 10 µM (CDKL1; [5]): 99%
percent of control binding at 10 µM (EGFR(L747-T751del,Sins); [5]): 81%
percent of control binding at 10 µM (SYK; [5]): 100%
percent of control binding at 10 µM (AKT3; [5]): 100%
percent of control binding at 10 µM (PIM3; [5]): 99%
percent of control binding at 10 µM (DRAK1; [5]): 95%
percent of control binding at 10 µM (MAST1; [5]): 86%
Compound: O=C(c1cc(Cc2n[nH]c(=O)c3ccccc23)ccc1F)N1CCN(C(=O)C2CC2)CC1 [Olaparib]

percent of control binding at 10 µM [1, 6]: 99%
percent of control binding at 10 µM (EPHA4; [6]): 100%
percent of control binding at 10 µM (MEK2; [6]): 57%
percent of control binding at 10 µM (LYN; [6]): 87%
percent of control binding at 10 µM [2, 6]: 96%
percent of control binding at 10 µM (EGFR(G719C); [6]): 99%
percent of control binding at 10 µM (PRKCH; [6]): 98%
percent of control binding at 10 µM (TSSK3; [6]): 84%
percent of control binding at 10 µM (CDKL1; [6]): 49%
percent of control binding at 10 µM (EGFR(L747-T751del,Sins); [6]): 89%
percent of control binding at 10 µM (SYK; [6]): 85%
percent of control binding at 10 µM (AKT3; [6]): 88%
percent of control binding at 10 µM (PIM3; [6]): 100%
percent of control binding at 10 µM (DRAK1; [6]): 100%
percent of control binding at 10 µM (MAST1; [6]): 100%
Compound: Cn1ncnc1[C@H]1c2n[nH]c(=O)c3cc(F)cc(c23)N[C@@H]1c1ccc(F)cc1 [Talazoparib]
